# Measurements as given in patent US20220135941A1, “COMPOSITIONS AND METHODS FOR LONG TERM CULTURE OF HEPATOCYTES” (Peking University, priority 2019, published 2022).
# Legend:
# [1] = tested on: primary human hepatocytes (PHHs)
# Experimental: (§1) The present study was approved by the Research Ethics Committee of China-Japan Friendship Hospital (Ethical approval No: 2009-50). PHHs were obtained from human donors. Human hepatocytes were isolated from discarded human livers. A modified two-step collagenase perfusion procedure was used to isolate primary human hepatocytes from these tissues (OOtani, et al., Nat Med., 15:701-706 (2009)). Briefly, the liver tissue was perfused with PB (perfusion buffer: 0.15 M NaCl; 5 mM KCl; 25 mM NaHCO3; 5 mM Glucose; 20 mM Hepes) to remove remaining blood cells, followed by PBE (perfusion buffer plus 1 mM EDTA) perfusion. The tissue was then perfused with PBC (perfusion buffer plus 1 mg/mL collagenase type IV, 5 mM CaCl2, Gibco). All the buffers were prewarmed to 37° C. prior to the isolation process. The hepatocytes suspension was collected and washed with Williams' Medium E (Gibco), then filtered through a 40 μm Nylon cell strainer (Falcon). The isolated hepatocytes were then seeded on collagen type I-coated (Rat tail collagen type I, Gibco) plates at a density of 2.5×10^5/cm2.
# (§2) Serum-free medium used for hepatocyte culture (Null): Williams' medium E containing B27 (50×, Gibco), Glutmax (Gibco) and Pen Strep (Gibco). DMSO vehicle control: Null supplemented with nearly 0.035% DMSO. […] 24 h-Cultured hepatocytes were cultured in commercial medium HCM (Lonza).
# Total RNA was isolated using the RNeasy Micro Kit (QIAGEN). RNA was converted to cDNA using First-Strand Synthesis SuperMix for qRT-PCR (Invitrogen). PCR was carried out using Power SYBR® Green PCR Master Mix (Applied Biosystems) and performed on an MX3000P Sequence Detection System (Stratagene). The data were analyzed using the delta-delta Ct method.
# [2] = tested on: primary human hepatocytes (PHHs); assay: PHH culture: morphology and survival; assay type: cell-based
# Experimental: as §1, §2
# HBV = HBV infection of 5C-PHHs; assay type: cell-based; conditions: for HBV products (HBsAg, HBeAg, HBV RNA, HBV DNA, cccDNA) in infected 5C-PHHs: drug treatment of HBV infected 5C-PHHs
# HCV Jc1G = assay: HCV infection of 5C-PHHs; assay type: cell-based; conditions: Gluc reporter and intracellular HCV RNA
# Experimental: The Huh7.5 cell line was kindly provided by Professor Charles Rice and was routinely maintained in Dulbecco modified medium supplemented with 10% fetal bovine serum (Biological industries), 25 mM HEPES (Gibco) and Non-Essential Amino Acid (Gibco). For generating the cell cultured HCV, the plasmid encoding HCV Jc1FLAG2 (p7-nsGluc2A) (Jc1G in the text) was first linearized by XbaI digestion, and used as template for in-vitro-transcription by using MEGAscript (Invitrogen). HCVcc was generated as described previously by electroporation of the in-vitro-transcribed Jc1G RNA into Huh7.5 cells. Virus containing supernatants were harvested each day after 3 days post electroporation' and up to 7 days post electroporation. Supernatants were combined and the virus was concentrated by centrifugation using Amicon® Ultra-15 (100K) Centrifugal Filter Devices (Millipore) at 5000 g for 30 min at 4° C. The buffer was exchanged into PBS by repeated centrifugation with Amicon® Ultra-15. […]
# For quantification of intracellular HCV RNA, cells were lysed in Trizol reagent (Invitrogen). […] The relative RNA levels were calculated using the 2-ΔΔCt method. […]
# For quantification of luciferase activity, supernatants from each well were taken and mixed with equal volume of 2×passive lysis buffer (Promega). Luciferase activity was measured with Renilla luciferase substrate (Promega) according to manufacturer's protocol.
# [3] = tested on: primary human hepatocytes (PHHs); assay: RNA-Seq global gene expression profiling of cultured PHHs; assay type: cell-based; conditions: hierarchical clustering
# Text: Total RNA was isolated using the RNeasy Plus Mini Kit (QIAGEN). RNA sequencing libraries were constructed using the Illumina mRNA-Seq Prep Kit (Illumina). Fragmented and randomly primed 150 bp paired-end libraries were sequenced using Illumina HiSeq 4000. Software and algorithms used for transcriptome analysis are including Cutadapt 1.16 (http://cutadapt.readthedocs.io/en/stable/guide.html), Salmon 0.8.2 (https://combinelab. github.io/salmon/), and R 3.5.0 (https://www.r-project.org). The expression profiles of HepG2, F-PHHs-3 and F-PHHs-4 were downloaded as raw data. The expression profiles of PHH 0d, hiPSC-Hep rep1, hiPSC-Hep rep2, hiPSC-Hep rep3 and hiPSC-Hep rep4 (Gordillo, et al., Development, 142:2094-2108 (2015)) were downloaded as raw sequencing reads from GEO database (GSM2817112, GSM2753376, GSM2753377, GSM2753378, GSM2753379). To compare gene expression profile between paired-end and single end libraries, we used the read1 from our generated sequencing paired-end reads. The read1 and the downloaded single-end read were trimmed to the same 40 bp length by using Cut adapt. The expression values for each sample were quantified by Salmon. Unsupervised hierarchical clustering of RNA-Seq data was generated by hclust package in R.
# [4] = tested on: interferon-stimulated genes (ISGs); assay: ISG expression in long-term cultured 5C-PHHs; assay type: cell-based, human
compound,measurement,setting,value
Forskolin [FSK],EMT marker gene expression α-smooth muscle actin (ASMA),"[1]; combined with SB43, qRT-PCR at day 14",down-regulated
same,PHH survival,[2]; combined with SB43,sustained PHH survival
entecavir [ETV],"HBV products (HBsAg, HBeAg, HBV RNA, HBV DNA, cccDNA) in infected 5C-PHHs",HBV,reduction of HBV products
"Nc1ccn([C@@H]2CS[C@H](CO)O2)c(=O)n1 [LAM, lamivudine]","HBV products (HBsAg, HBeAg, HBV RNA, HBV DNA, cccDNA) in infected 5C-PHHs",HBV,reduction of HBV products
"NC(=O)c1ccc(-c2nc(-c3ccc4c(c3)OCO4)c(-c3ccccn3)[nH]2)cc1 [SB43, 4-[4-(1,3-benzodioxol-5-yl)-5-(2-pyridinyl)-1H-imidazol-2-yl]benzamide]","expression of EMT-associated transcription factors SNAI2, TWIST1",[1]; SB43 alone,failed to suppress
same,maintaining the functional state of PHHs,[1]; blocking TGF-β signaling with SB43 alone,limited effect
same,epithelial morphology with the expression of E-cadherin,"[2]; SB43 treatment, after 2 weeks",maintained an epithelial morphology
Daclatasvir [DCV],HCV viral replication in 5C-PHHs,HCV Jc1G,effectively blocked
C[C@H](NC(=O)Cc1cc(F)cc(F)c1)C(=O)N[C@H](C(=O)OC(C)(C)C)c1ccccc1 [DAPT],expression of EMT marker genes (COL1A1; Thy1; VIM),[1]; added to SB43 and FSK combination,further blocked
same,expression of mesenchymal marker gene COL1A1,"[1]; combined with SB43 and FSK, day 14, normalized to FSK+SB43",decreased
"CCCC(=O)Nc1ncnc2c1ncn2[C@@H]1O[C@@H]2COP(=O)([O-])O[C@H]2[C@H]1OC(=O)CCC.[Na+] [db-cAMP, Dibutyryl-cAMP, sodium salt]",global gene expression of PHHs when FSK is substituted,[3],replaced FSK
interferon-α [IFN-α],cccDNA,HBV; cryopreserved PHHs cultured in 5C,significant reduction
same,"HBV products (HBsAg, HBeAg, HBV RNA, HBV DNA, cccDNA) in infected 5C-PHHs",HBV,reduction of HBV products
same,interferon-stimulated genes (ISGs) expression,[4],significantly upregulated
